How the values were obtained:
H2122 cells [1] = assay: Single agent proliferation assay, Hoechst stain, H2122; format: cell-based; details: Homo sapiens, NCI-H2122, 72 h, read-out: Relative IC50
Procedure: (§1) Cells were seeded in 96-well plates at the densities indicated in Table 4 in RPMI containing 10% FBS and allowed to adhere overnight prior to addition of compound or vehicle control. Compounds were prepared from DMSO stocks to give the desired final concentrations. The final DMSO concentration was constant at 0.1%. Test compounds were incubated with the cells for 72 h at 37° C., 5% CO2 in a humidified atmosphere. CellTiter-Glo® reagent (Promega, Madison, Wis.) was added according to manufacturer's instructions and luminescence detected using the BMG FLUOstar plate reader (BMG Labtech, Ortenberg, Germany). A duplicate set of assay plates was incubated with 10 μg/ml Hoechst 33342 stain (Invitrogen, Grant Island, N.Y.) in complete growth medium for 1 h at 37° C., 5% CO2 in a humidified atmosphere. The medium was then removed and replaced with PBS and fluorescence detected using a BMG FLUOstar Omega plate reader (BMG labtech, Ortenberg, Germany). The average media only background value was deducted and the data analysed using a 4-parameter logistic equation in GraphPad Prism (GraphPad Software, La Jolla, Calif.).
(§2) The effects of BVD-523, the CDK4/6 inhibitors, another ERK inhibitor (SCH772984), and a reference MEK inhibitor (Trametinib), as single agents on cell viability was assessed after 72 h using two methods (FIGS. 2A-2L). The first method was by quantitating cellular ATP levels using CellTiter-Glo® (Promega, Madison, Wis.). The second method was by quantitating total amount of DNA in an assay well after staining the DNA with Hoechst stain.

H1437 cells [2] = assay: Single agent proliferation assay, Hoechst stain, H1437; format: cell-based; details: Homo sapiens; for IC50: NCI-H1437, 72 h, read-out: Relative IC50
Procedure: as §1, §2

[3] = test system: MAPK signaling components in A375 cells; assay: Western blot of MAPK, cell cycle and apoptosis signaling in A375 cells; format: cell-based, human
Procedure: (§3) For Western blot studies, HCT116 cells (5×10^6) were seeded into 10 cm dishes in McCoy's 5A plus 10% FBS. A375 cells (2.5×10^6) were seeded into 10 cm dishes in DMEM plus 10% FBS. Cells were allowed to adhere overnight prior to addition of the indicated amount of test compound (BVD-523) or vehicle control. Cells were treated for either 4 or 24 hours before isolation of whole-cell protein lysates, as specified below. Cells were harvested by trypsinisation, pelleted and snap frozen. Lysates were prepared with RIPA (Radio-Immunoprecipitation Assay) buffer, clarified by centrifugation and quantitated by bicinchoninic acid assay (BCA) assay. 20-50 μg of protein was resolved by SDS-PAGE electrophoresis, blotted onto PVDF membrane and probed using the antibodies detailed in Table 2 (for the 4-hour treatment) and Table 3 (for the 24-hour treatment) below.

H1437 cells [4] = assay: Single agent proliferation assay, CellTiter-Glo, H1437; format: cell-based; details: Homo sapiens; for IC50: NCI-H1437, 72 h, read-out: Relative IC50; for inhibition at 3 µM: NCI-H1437, @3 μM
Procedure: as §1, §2

A549 cells [5] = assay: Single agent proliferation assay, CellTiter-Glo, A549; format: cell-based; details: Homo sapiens; for IC50: 72 h, read-out: Relative IC50
Procedure: as §1, §2

[6] = test system: MAPK signaling in HCT-116 cells; assay: Western blot of MAPK signaling in HCT116 cells; format: cell-based, human; details: HCT116, 4 hours, micromolar concentrations
Procedure: as §3

H226 cells [7] = assay: Single agent proliferation assay, Hoechst stain, H226; format: cell-based; details: Homo sapiens; for IC50: NCI-H226, 72 h, read-out: Relative IC50
Procedure: as §1, §2

H2122 cells [8] = assay: Single agent proliferation assay, CellTiter-Glo, H2122; format: cell-based; details: Homo sapiens; for IC50: NCI-H2122, 72 h, read-out: Relative IC50
Procedure: as §1, §2

H226 cells [9] = assay: Single agent proliferation assay, CellTiter-Glo, H226; format: cell-based; details: Homo sapiens; for inhibition at 10 µM: NCI-H226, @10 μM; for inhibition at 3 µM: NCI-H226, @3 μM
Procedure: as §1, §2

A549 cells [10] = assay: Single agent proliferation assay, Hoechst stain, A549; format: cell-based; details: Homo sapiens, 72 h, read-out: Relative IC50
Procedure: as §1, §2

ERK = details: Morris et al., 2013; cited from earlier work
[11] = read-out: Maximal percentage inhibition

SMILES: CC(C)Nc1cc(-c2c[nH]c(C(=O)N[C@H](CO)c3cccc(Cl)c3)c2)c(Cl)cn1 [BVD-523]
- IC50 (H2122 cells [1]): 450 nM
- IC50 (H1437 cells [2]): 1400 nM
- cyclin-D1 level ([3]; 24 hours): greatly reduced
- phosphorylation of ERK-dependent residues (T359/S363) in RSK 1 and 2 proteins ([3]; A375, 4 hours, micromolar concentrations): reduced
- Bim-EL level ([3]; A375, prolonged treatment): increased
- increased apoptosis (PARP cleavage) ([3]; A375, prolonged treatment): not observed
- MAPK feedback phosphatase DUSP6 level ([3]; BRAF mutant cell line, 24 hours): greatly reduced
- concentrations required to induce changes in substrate phosphorylation and effector targets of ERK ([3]; RAF and RAS mutant cancer cells, acute and prolonged treatment): low micromolar range
- effect on autophosphorylation of ERK ([3]; see FIG. 1): allows for the autophosphorylation of ERK while still inhibiting ERK
- IC50 (H1437 cells [4]): 1200 nM
- IC50 (A549 cells [5]): 730 nM
- phosphorylation of ERK-dependent residues (T359/S363) in RSK 1 and 2 proteins [6]: reduced
- inhibition at 10 µM (H226 cells [7]; NCI-H226, @10 μM, read-out: Maximal percentage inhibition): 58%
- IC50 (H2122 cells [8]): 450 nM
- inhibition at 10 µM (H226 cells [9]; [11]): 34%
- IC50 (A549 cells [10]): 590 nM

SMILES: CN(C)C(=O)c1cc2cnc(Nc3ccc(N4CCNCC4)cn3)nc2n1C1CCCC1 [LEE-011]
- IC50 (H2122 cells [1]): 450 nM
- IC50 (H1437 cells [2]): 2800 nM
- inhibition at 10 µM (H1437 cells [4]; NCI-H1437, @10 μM, read-out: Maximal percentage inhibition): 30%
- inhibition at 10 µM (A549 cells [5]; @10 μM, read-out: Maximal percentage inhibition): 49%
- IC50 (H226 cells [7]): 370 nM
- inhibition at 10 µM (H2122 cells [8]; NCI-H2122, @10 μM, read-out: Maximal percentage inhibition): 44%
- inhibition at 10 µM (H226 cells [9]; [11]): 32%
- IC50 (A549 cells [10]): 700 nM

SMILES: CC(=O)O[C@H]1C(=O)[C@@]2(C)[C@H]([C@H](OC(=O)c3ccccc3)[C@]3(O)C[C@H](OC(=O)[C@H](O)[C@@H](NC(=O)c4ccccc4)c4ccccc4)C(C)=C1C3(C)C)[C@]1(OC(C)=O)CO[C@@H]1C[C@@H]2O [Paclitaxcel, Paclitaxel]
- IC50 (H2122 cells [1]): 2 nM
- IC50 (H1437 cells [2]): 3 nM
- IC50 (H1437 cells [4]): 7 nM
- IC50 (A549 cells [5]): 3 nM
- IC50 (H226 cells [7]): 3 nM
- IC50 (H2122 cells [8]): 3 nM
- IC50 (H226 cells [9]; NCI-H226, 72 h, read-out: Relative IC50): 3 nM
- IC50 (A549 cells [10]): 2 nM

SMILES: CC(=O)c1c(C)c2cnc(Nc3ccc(N4CCNCC4)cn3)nc2n(C2CCCC2)c1=O [Palbociclib]
- IC50 (H2122 cells [1]): 150 nM
- IC50 (H1437 cells [2]): 220 nM
- inhibition at 3 µM (H1437 cells [4]; [11]): 29%
- inhibition at 3 µM (A549 cells [5]; @3 μM, read-out: Maximal percentage inhibition): 41%
- IC50 (H226 cells [7]): 56 nM
- inhibition at 3 µM (H2122 cells [8]; NCI-H2122, @3 μM, read-out: Maximal percentage inhibition): 48%
- inhibition at 3 µM (H226 cells [9]; [11]): 20%
- IC50 (A549 cells [10]): 130 nM

SMILES: O=C(Nc1ccc2[nH]nc(-c3ccncc3)c2c1)[C@@H]1CCN(CC(=O)N2CCN(c3ccc(-c4ncccn4)cc3)CC2)C1 [SCH772984]
- IC50 (H2122 cells [1]): 530 nM
- effect on autophosphorylation of ERK (ERK): inhibits autophosphorylation of ERK
- inhibition at 3 µM (H1437 cells [2]; NCI-H1437, @3 μM, read-out: Maximal percentage inhibition): 63%
- inhibition at 3 µM (H1437 cells [4]; [11]): 57%
- IC50 (A549 cells [5]): 1100 nM
- inhibition at 3 µM (H226 cells [7]; NCI-H226, @3 μM, read-out: Maximal percentage inhibition): 49%
- IC50 (H2122 cells [8]): 630 nM
- inhibition at 3 µM (H226 cells [9]; [11]): 35%
- IC50 (A549 cells [10]): 740 nM

SMILES: CC(=O)Nc1cccc(-n2c(=O)n(C3CC3)c(=O)c3c(Nc4ccc(I)cc4F)n(C)c(=O)c(C)c32)c1 [Trametinib]
- IC50 (H2122 cells [1]): 3 nM
- IC50 (H1437 cells [2]): 3 nM
- IC50 (H1437 cells [4]): 2 nM
- IC50 (A549 cells [5]): 5 nM
- IC50 (H226 cells [7]): 2 nM
- IC50 (H2122 cells [8]): 3 nM
- inhibition at 1 µM (H226 cells [9]; NCI-H226, @1 μM, read-out: Maximal percentage inhibition): 57%
- IC50 (A549 cells [10]): 5 nM

— patent US11679112B2, “Cancer treatments using combinations of CDK and ERK inhibitors” (BIOMED VALLEY DISCOVERIES, INC., priority 2013, dated 2023)
